Reference: ChEMBL document CHEMBL5523703, “Modulators for palmitoylation of proteins and small molecules” (Eur J Med Chem, 2024)
Values belong to the compound of their own block, whether it stands above or below them.

Columns and labels:
[1] = tested on: HCC4006; experiment: cells; conditions: Homo sapiens, HCC4006, 24 h
[2] = Inhibition of Wnt/beta-catenin signalling in HEK293 cells assessed as reduction in luciferase activity incubated for 24 hrs by TOPFlash luciferase reporter assay; type: cell-based; conditions: Homo sapiens, HEK293, 24 h
[3] = species on record: Homo sapiens; experiment: Inhibition of ZDHHC (unknown origin) at 20 uM relative to control
[4] = target: T1, Phosphatidylserine lipase ABHD16A (Homo sapiens, UniProt O95870); experiment: Inhibition of recombinant human ABHD16A expressed in HEK293T cells incubated for 1 hr by fluorescence based analysis; type: cell-based
T1 sequence (O95870 whole entry): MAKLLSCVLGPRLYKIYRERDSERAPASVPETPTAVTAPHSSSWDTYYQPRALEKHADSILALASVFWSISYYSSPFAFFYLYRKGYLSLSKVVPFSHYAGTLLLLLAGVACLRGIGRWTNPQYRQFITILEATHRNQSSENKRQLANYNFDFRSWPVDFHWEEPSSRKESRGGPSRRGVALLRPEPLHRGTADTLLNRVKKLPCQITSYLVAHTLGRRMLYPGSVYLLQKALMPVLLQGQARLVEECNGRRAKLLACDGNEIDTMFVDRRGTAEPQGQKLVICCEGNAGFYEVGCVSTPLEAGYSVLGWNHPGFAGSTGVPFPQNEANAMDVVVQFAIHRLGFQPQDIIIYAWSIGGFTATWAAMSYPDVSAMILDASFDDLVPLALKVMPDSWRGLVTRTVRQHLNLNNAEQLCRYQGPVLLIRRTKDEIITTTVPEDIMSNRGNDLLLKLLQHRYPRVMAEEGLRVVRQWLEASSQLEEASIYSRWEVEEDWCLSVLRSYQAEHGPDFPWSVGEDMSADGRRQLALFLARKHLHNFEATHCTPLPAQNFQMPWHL

[5] = target: Serine palmitoyltransferase 3 (Homo sapiens, UniProt Q9NUV7); experiment: Inhibition of SPTLC3 (unknown origin)
[6] = cells; conditions: Homo sapiens, HEK-293T, 24 h
[7] = target: T2, Membrane-bound ghrelin O-acyltransferase MBOAT4 (Homo sapiens, UniProt Q96T53); experiment: Inhibition of GOAT (unknown origin)
T2 sequence (Q96T53 whole entry): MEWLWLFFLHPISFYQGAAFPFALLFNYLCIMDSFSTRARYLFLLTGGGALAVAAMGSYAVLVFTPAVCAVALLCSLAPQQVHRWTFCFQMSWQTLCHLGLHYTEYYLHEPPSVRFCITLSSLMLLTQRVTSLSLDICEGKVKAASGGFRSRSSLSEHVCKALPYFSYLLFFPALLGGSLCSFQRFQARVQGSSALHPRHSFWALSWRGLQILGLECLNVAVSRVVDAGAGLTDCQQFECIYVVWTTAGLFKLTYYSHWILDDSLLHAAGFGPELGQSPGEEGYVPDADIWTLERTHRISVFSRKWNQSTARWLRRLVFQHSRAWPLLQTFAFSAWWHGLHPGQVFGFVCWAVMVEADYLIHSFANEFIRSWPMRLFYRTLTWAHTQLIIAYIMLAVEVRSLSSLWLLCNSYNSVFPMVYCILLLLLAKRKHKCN

[8] = target: T3, Membrane-bound ghrelin O-acyltransferase MBOAT4 (Mus musculus, UniProt P0C7A3); experiment: Inhibition of N-terminal His-tagged mouse GOAT expressed in baculovirus infected insect cells
T3 sequence (P0C7A3 whole entry): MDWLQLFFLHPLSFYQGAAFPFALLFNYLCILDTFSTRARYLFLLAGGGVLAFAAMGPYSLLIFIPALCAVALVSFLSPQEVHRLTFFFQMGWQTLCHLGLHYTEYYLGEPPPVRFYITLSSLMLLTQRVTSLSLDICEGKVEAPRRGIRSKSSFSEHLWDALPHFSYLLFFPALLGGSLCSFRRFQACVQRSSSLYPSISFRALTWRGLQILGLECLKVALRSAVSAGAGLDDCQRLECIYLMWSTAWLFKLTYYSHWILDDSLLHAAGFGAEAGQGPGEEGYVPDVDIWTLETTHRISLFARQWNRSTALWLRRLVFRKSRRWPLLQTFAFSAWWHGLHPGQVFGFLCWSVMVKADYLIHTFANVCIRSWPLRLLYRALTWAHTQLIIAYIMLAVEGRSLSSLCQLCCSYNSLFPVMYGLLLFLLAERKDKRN

[9] = target: T4, Carnitine O-palmitoyltransferase 1, muscle isoform (Homo sapiens, UniProt Q92523); experiment: Inhibition of CPT1B (unknown origin) in KB cells; type: cell-based
T4 sequence (Q92523 whole entry): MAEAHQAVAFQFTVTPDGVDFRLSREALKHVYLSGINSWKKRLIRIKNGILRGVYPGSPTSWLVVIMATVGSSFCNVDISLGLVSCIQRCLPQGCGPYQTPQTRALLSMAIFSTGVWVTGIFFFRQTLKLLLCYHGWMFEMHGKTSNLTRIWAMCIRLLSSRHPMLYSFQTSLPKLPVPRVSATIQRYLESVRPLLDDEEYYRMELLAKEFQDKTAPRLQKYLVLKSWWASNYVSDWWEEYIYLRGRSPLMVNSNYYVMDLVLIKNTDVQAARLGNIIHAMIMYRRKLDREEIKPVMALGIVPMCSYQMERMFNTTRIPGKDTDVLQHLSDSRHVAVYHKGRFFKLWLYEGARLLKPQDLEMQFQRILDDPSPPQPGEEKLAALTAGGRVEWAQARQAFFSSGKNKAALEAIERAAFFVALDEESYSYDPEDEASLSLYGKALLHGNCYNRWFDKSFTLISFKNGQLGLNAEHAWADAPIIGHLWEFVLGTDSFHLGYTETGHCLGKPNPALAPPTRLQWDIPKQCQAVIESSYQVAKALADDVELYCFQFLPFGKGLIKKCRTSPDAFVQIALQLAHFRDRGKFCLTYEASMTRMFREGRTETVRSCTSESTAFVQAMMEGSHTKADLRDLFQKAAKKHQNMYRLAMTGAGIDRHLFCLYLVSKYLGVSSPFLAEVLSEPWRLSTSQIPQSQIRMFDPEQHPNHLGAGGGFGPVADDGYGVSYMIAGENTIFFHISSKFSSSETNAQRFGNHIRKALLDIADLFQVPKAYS

[10] = Inhibition of SPT (unknown origin); parameters: species or system Homo sapiens
[11] = Inhibition of Wnt/beta-catenin signalling in Wnt3a stimulated HEK293 cells assessed as reduction in luciferase activity incubated for 24 hrs by TOPFlash luciferase reporter assay; type: cell-based; conditions: Homo sapiens, HEK293, 24 h
[12] = target: T5, Palmitoyl-protein thioesterase ABHD10, mitochondrial (Homo sapiens, UniProt Q9NUJ1); experiment: Inhibition of ABHD10 (unknown origin)
T5 sequence (Q9NUJ1 whole entry): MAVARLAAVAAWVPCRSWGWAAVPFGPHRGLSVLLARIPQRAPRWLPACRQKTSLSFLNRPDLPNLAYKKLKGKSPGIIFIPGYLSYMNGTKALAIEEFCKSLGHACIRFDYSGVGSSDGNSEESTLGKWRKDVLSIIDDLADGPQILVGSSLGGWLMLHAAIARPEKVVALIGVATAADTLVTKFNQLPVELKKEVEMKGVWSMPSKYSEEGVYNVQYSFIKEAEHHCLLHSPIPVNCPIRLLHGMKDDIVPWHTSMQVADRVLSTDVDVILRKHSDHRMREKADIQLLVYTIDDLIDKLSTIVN

[13] = target: Palmitoyltransferase ZDHHC7 (Homo sapiens, UniProt Q9NXF8); experiment: Inhibition of ZDHHC7 (unknown origin)
Sequence of Palmitoyltransferase ZDHHC7 (Q9NXF8 whole entry): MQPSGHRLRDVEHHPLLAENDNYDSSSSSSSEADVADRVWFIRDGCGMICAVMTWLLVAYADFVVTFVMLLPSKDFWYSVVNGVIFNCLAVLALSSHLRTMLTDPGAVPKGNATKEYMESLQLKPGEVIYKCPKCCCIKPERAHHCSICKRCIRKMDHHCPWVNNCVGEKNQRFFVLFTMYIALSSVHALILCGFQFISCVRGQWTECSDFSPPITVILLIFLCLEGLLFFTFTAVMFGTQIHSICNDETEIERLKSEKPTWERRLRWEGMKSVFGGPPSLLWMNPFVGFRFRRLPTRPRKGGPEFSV

Sequence of Serine palmitoyltransferase 3 (Q9NUV7 whole entry): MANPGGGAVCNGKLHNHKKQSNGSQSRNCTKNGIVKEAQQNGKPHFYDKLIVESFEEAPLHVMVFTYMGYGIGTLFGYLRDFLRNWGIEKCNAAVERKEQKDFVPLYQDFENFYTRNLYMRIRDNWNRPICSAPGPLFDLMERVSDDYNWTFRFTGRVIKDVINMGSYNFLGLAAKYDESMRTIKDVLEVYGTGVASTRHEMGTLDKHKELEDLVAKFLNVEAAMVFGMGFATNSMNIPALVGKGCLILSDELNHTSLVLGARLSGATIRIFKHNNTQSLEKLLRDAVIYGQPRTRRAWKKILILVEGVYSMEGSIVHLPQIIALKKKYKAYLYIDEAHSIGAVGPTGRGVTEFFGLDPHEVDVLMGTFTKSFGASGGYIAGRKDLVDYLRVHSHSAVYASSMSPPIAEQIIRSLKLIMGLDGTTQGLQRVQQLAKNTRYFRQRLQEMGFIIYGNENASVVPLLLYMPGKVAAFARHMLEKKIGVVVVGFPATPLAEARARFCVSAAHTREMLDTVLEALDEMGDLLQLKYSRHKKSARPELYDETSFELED

SMILES: Cn1nc(C(F)(F)F)cc1C(=O)N[C@@H]1CCN(C(=O)c2cc(Cl)c3nccnc3c2)C[C@@H]1c1ccccc1
IC50 [1]: 11 nM

SMILES: COc1cc(C(=O)N2CC[C@H](NC(=O)c3ccccc3OC(F)(F)F)c3c2cnn3C(C)C)cnc1OC
IC50 [1]: 3.9 nM

SMILES: CCCCCCCCCCCCCC1OC(=O)/C1=C\CCCCC(N)=O (configuration not stated)
IC50 [4]: 200 nM

SMILES: COc1ccc(C(=O)N2CC[C@H](NC(=O)c3ccccc3OC(F)(F)F)c3c2cnn3CCCCCNC(=O)CCC2=[N+]3C(=Cc4c(C)cc(C)n4[B-]3(F)F)C=C2)cc1OC
IC50 [5]: 0.8 nM

SMILES: COc1nn(-c2ccc(F)cc2)c(=O)o1
IC50 [4]: 30 nM

SMILES: NC(=O)CCCC/C=C1\C(=O)OC1CCc1ccccc1 (configuration not stated)
IC50 [4]: ≥ 10000 nM

SMILES: Cc1nc(N)c(CCC2CCN(C(=O)[C@H](C)NC(=O)c3ccnn3C)CC2)c(Cl)n1
IC50 [7]: 60 nM

SMILES: CCCCCCCC(=O)NC[C@H](NC(=O)[C@H](CO)NC(=O)CN)C(=O)N[C@@H](Cc1ccccc1)C(=O)N[C@@H](CC(C)C)C(=O)N[C@@H](CO)C(=O)N1CCC[C@H]1C(=O)N[C@@H](CCC(=O)O)C(=O)N[C@@H](Cc1cnc[nH]1)C(=O)N[C@@H](CCC(N)=O)C(=O)N[C@@H](CCCCN)C(=O)N[C@@H](C)C(=O)N[C@@H](CCC(N)=O)C(=O)N[C@@H](CCC(N)=O)C(=O)N[C@@H](CCCNC(=N)N)C(=O)N[C@@H](CCCCN)C(=O)N[C@@H](CCC(=O)O)C(=O)N[C@@H](CO)C(=O)N[C@@H](CCCCN)C(=O)N[C@@H](CCCCN)C(=O)N1CCC[C@H]1C(=O)N1CCC[C@H]1C(=O)N[C@@H](C)C(=O)N[C@@H](CCCCN)C(=O)N[C@@H](CC(C)C)C(=O)N[C@@H](CCC(N)=O)C(=O)N1CCC[C@H]1C(=O)N[C@@H](CCCNC(=N)N)C(=O)O
IC50 [8]: 200 nM

SMILES: CCCCCC[C@@H](O)CCCCCC/C=C/[C@H](OC(C)=O)[C@@H](O)[C@H](O)[C@H](N)C(=O)O
IC50 [10]: 100 nM

SMILES: COc1nn(-c2cccc([N+](=O)[O-])c2)c(=O)o1
IC50 [4]: 60 nM

SMILES: CC[C@@]1(c2ccc(C)cc2)C(=O)N(C(=O)OC(C)C)N1C(=O)OC(C)C
IC50 [12]: 30 nM

SMILES: CCCCCCCCCCCCCCC(Br)C(=O)OC (configuration not stated)
IC50 [13]: 38000 nM

Further lines, results first:

IC50 [2]: 90 nM
SMILES: CCOc1ccc(NC(=O)CSc2nnc(-c3ccncc3)n2-c2ccccc2)cc1

IC50 [2]: 710 nM
SMILES: CCc1cc(=O)oc2c(C)c(OCC(=O)Nc3ccc(N4CCCCC4)cc3)ccc12

inhibition [3]: 71.3%
SMILES: N#CCC(=O)NCCc1ccc(OC(=O)c2cccc(Oc3ccccc3)c2)cc1

IC50 [2]: 10 nM
SMILES: CC(C)Cc1c(C#N)c(N)nc(SCC(=O)c2ccc(-c3ccccc3)cc2)c1C#N

IC50 [2]: 16 nM
SMILES: O=S(=O)(c1ccc2oc(-c3cccnc3)nc2c1)c1ccc2oc(-c3cccnc3)nc2c1

IC50 [6]: 2.9 nM
SMILES: Cn1c(=O)c2c(ncn2CC(=O)Nc2ccc(-c3ccccc3)nn2)n(C)c1=O [ETC-159]

IC50 [8]: 13100 nM
SMILES: CCCCCCCCN(C(C)=O)C(C(=O)NCc1ccccc1)c1ccc2cc(O)ccc2c1 (configuration not stated)

IC50 [9]: 16000 nM
SMILES: O=C(O)C(=O)c1ccc(OCCOc2ccc3ccccc3c2)s1

IC50 [8]: 7540 nM
SMILES: CCCCCCN(C(C)=O)C(C(=O)NCc1ccccc1)c1ccc2cc(O)ccc2c1 (configuration not stated)

IC50 [11]: 20 nM
SMILES: O=C(Cn1cc(I)c(=O)c(I)c1)Nc1ccc(-c2ccccc2)cn1
